The results in this text go back to US20060159666A1, “Method of potentiating inflammatory and immune modulation for cell and drug therapy” (priority 2004, published 2006).

For experiment [1], the system named is HUCBCs. Put plainly: 96-Chemotx migration assay of HUCBCs to MCAO brain tissue extracts. The class given is cell-based, human. The settings on record: positive control; 4 hours. The source says:
In determining the time course of HUCBC migration into brain after a stroke, an ex vivo experimental approach was employed. Male Sprague Dawley rats under a permanent middle cerebral artery occlusion (MCAO); a nylon filament was threaded through the internal carotid artery to the origin of the MCA and permanently ligated in place. At 4, 6, 12, 24, 48, 72 hrs and 1 week after ischemia the animals were euthanized and the brains removed within two min, immediately flash-frozen and then stored at −80° C. until needed. The frozen brains were semi-thawed and kept cold. The striatum, hippocampus, and the cortex were dissected from the sides both ipsilateral and contralateral to the occlusion. The same dissections were performed for sham surgery and normal rats. Tissue from each of the conditions were pooled, and kept on ice in clear Dulbecco's modified Eagle's medium (DMEM, Invitrogen, Carlsbad, Calif.). […]
The cryopreserved HUCBCs were thawed and transferred into clear DMEM with 5% FBS and 1 μL/1 mL of Gentamicin (Sigma, St. Louis). […] Cord blood cells were then plated in low adherence 6 well culture dishes (Corning, Corning, N.Y.) for 24 hrs in a water jacket incubator set at 37° C. and with 5% CO2 After 24 hrs cells were lifted by gentle pipetting, placed in a 15 mL tube, centrifuged, resuspended in 1 mL of media without FBS, and viability assessed using the trypan blue dye exclusion method. […]

Experiment [2] has as its system HUCBCs. Put plainly: 96-Chemotx migration assay of HUCBCs to recombinant chemoattractants. The class given is cell-based, human. As to conditions: MCP-1 5-30 ng/mL, IL-3 1-10 ng/mL, TPO 10-40 ng/mL; 4 hr; ATP luminescence. How it is done: HUCBCs were prepared as described above and cultured for 24 hr before use. The 96-Chemotx chambers (NeuroProbe, Gaithersburg, Md.) were used for the migration assays. The chamber is a 96-well plate consisting of bottom wells to hold the unknowns or chemoattractant and a top plate, which is a polycarbonate membrane with 5 μm pore size. […] All were pipetted (300 μL) directly into the bottom wells, in triplicate, after which the top plate was securely attached. The HUCBCs were pipetted directly into each top well at a concentration of 62,000 cells per 25 μL. The migration chambers were then placed in a cell culture incubator at 37° C. with 5% CO2 for 4 hr. The top plates were removed and the bottom plates were then centrifuged (300 rpm for 10 min) to force cells to the bottom. Half the medium (150 μL) was then removed and a cell viability assay (CellTiter-Glo Kit, Promega), which is based on the ability of live cells to incorporate adenosine triphosphate (ATP), was used to determine the numbers of cells that had migrated. The migration plate was read in an automated plate reader (BioTek) set to the appropriate luminescence.

In experiment [3] the test system is HUCBCs. Kind of experiment: Human cytokine antibody array of HUCBC conditioned medium. As to conditions: Ex Vivo 10 medium; IL-3 5 ng/mL or TPO 25 ng/mL for 5 d; 42-cytokine array. The class given is cell-based.
Protocol: The mononuclear fraction of the HUCBCs was obtained from Saneron CCEL Therapeutics, Inc. (Oldsmar, Fla.). Frozen samples were thawed in 10 mL of DMEM (Gibco), supplemented with 5% fetal bone serum (FBS, Gibco) and gentamicin (50 μg/mL, Sigma), or with Ex Vivo 10 media with gentamicin (50 μg/mL, Sigma). After centrifugation for 10 min at 200 rpm, the supernatant was removed and the cells were resuspended in 1 mL of the same medium. The viability of all samples ranged from 73% to 95% as determined by the ability to exclude trypan blue dye. Cells were then cultured for 3 to 14 d for cytokine arrays and ELISA assays; cells cultured in Ex Vivo 10 media were further stimulated with IL-3, TPO or both.
In order to address this, we used human cytokine arrays to establish whether the HUCBCs secreted these proteins. To determine the cytokines that HUCBCs released during culture, we used a TranSignal human cytokine antibody array (Panomics, Inc., Redwood City, Calif.), which simultaneously profiles either 23 (Array 1.0) or 42 (Array 3.0) cytokines/assay at the protein level. First, we examined whether cytokine production increased as a function of seeding density. The HUCBC were cultured at concentrations of 5, 10, or 30×10^6 per 5 mL of serum free DMEM with Gentamicin (50 μg/mL) for 3 d. […]

As for “SDF-1: Stromal derived factor 1, chemoattractant used as positive control”, in the experiment with HUCBCs [1], the “HUCBC migration to SDF-1 chemoattractant compared to all other conditions” value is listed as “Significantly more HUCBCs”.

On to “MCP-1: human recombinant MCP-1 used as chemoattractant”, for which the “HUCBC migration to chemoattractant compared to controls (DMEM and PBS)” value with HUCBCs [2] is reported as “Significantly more HUCBCs migrated”.

As for “TPO: thrombopoietin, factor known to stimulate hematopoietic cells”, the “HUCBC migration to chemoattractant compared to controls (DMEM and PBS)” value in the experiment on HUCBCs [2] was “Significantly more HUCBCs migrated”. For the same substance, the “cytokine release from HUCBCs after stimulation” value in the experiment on HUCBCs [3] is “a somewhat different profile of protein release”.
